{"source": "paper PMC1660542", "about": "“Structure-based discovery of inhibitors of the YycG histidine kinase: New chemical leads to combat Staphylococcus epidermidis infections” (BMC Microbiology, 2006);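 for hemolysis: compounds tested at their MIC and at 4× MIC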", "key": {"S. epidermidis ATCC12228": {"system": "S. epidermidis ATCC12228", "assay": "Minimal bactericidal concentration (MBC) assay", "format": "cell-based", "conditions": "Staphylococcus epidermidis", "experimental": "(§1) MIC assays for the antibacterial activities of the compounds were performed according to the broth micro-dilution (in tubes) method of the Clinical and Laboratory Standards Institute (CLSI) of America. The Minimal Bactericidal Concentration (MBC) was obtained by subculturing 100 μl from each negative (no visible bacterial growth) tube from the MIC assay, onto substance-free Mueller-Hinton agar plates. The plates were incubated at 37°C for 24 hours, and the MBC was defined as the lowest concentration of substance which produced subcultures growing no more than five colonies on each plate."}, "S. epidermidis RP62A": {"system": "S. epidermidis RP62A", "assay": "Minimal bactericidal concentration (MBC) assay", "format": "cell-based", "conditions": "Staphylococcus epidermidis; S. epidermidis RP62A; read-out: Minimal bactericidal concentration (MBC)", "experimental": "as §1"}, "[1]": {"assay": "Erythrocyte hemolysis assay", "format": "cell-based, human", "conditions": "human, erythrocytes (5% suspension), 1 hour, 37°C", "experimental": "Cytotoxicity of the antibacterial compounds on cultured Vero cell was measured by using the Cell Proliferation Kit I (MTT) (Roche, Indianapolis, USA) according to the manufacturer's protocol. Addition of DMSO (1%) in the medium produced a slight cytotoxicity on Vero cell, which could easily be corrected for. Each assay was performed in quadruplicate and repeated three times. The results were converted to percentage of the control (cells only treated with 1% DMSO) and CC50 (concentrations that produce a 50% cytotoxicity effect on Vero cell) was calculated by the Origin v7.0 software (OriginLab, Northampton, USA). Hemolytic activities of the compounds were determined by using healthy human erythrocytes. The erythrocytes were washed three times in sterile saline and resuspended to 5% prior to the assay. […] Cells without compound treatment and cells with 1% Triton-100 treatment were used as 0% and 100% hemolysis controls, respectively. The cell suspensions were incubated for 1 hour at 37°C and centrifuged at 1000×g for 10 min. Volumes of 100 μl supernatants were transferred to another sterile plate and hemoglobin release from the cells was determined at 570 nm. […] The hemolysis assays were repeated twice."}, "S. aureus ATCC29213": {"system": "S. aureus ATCC29213", "assay": "MIC assay (broth dilution in tubes, CLSI)", "format": "cell-based, Staphylococcus aureus", "conditions": "Staphylococcus aureus; S. aureus ATCC29213; read-out: Minimal inhibitory concentration (MIC)", "from_the_text": "(§2) Staphylococcus epidermidis ATCC12228 and RP62A strains were purchased from the American Type Culture Collection (ATCC, Manassas, USA). Staphylococcus aureus ATCC29213, Escherichia coli ATCC25922 and Pseudomonas aeruginosa ATCC27853 were kindly provided by Dr. Bijie Hu at Zhongshan Hospital (Shanghai, China). S. epidermidis strains se527, se886, se847, seG203, Streptococcus pyogenes strain 144, and Streptococcus mutans strain 128 were all clinical isolates from Zhongshan Hospital and Huashan Hospital (Shanghai, China). If not stated otherwise, S. epidermidis and S. aureus strains were grown at 37°C in tryptic soy broth (TSB, Oxoid) containing 0.25% glucose, E. coli and P. aeruginosa strains were grown at 37°C in Luria-Bertani (LB, Oxoid).\nas §1"}, "S. pyogenes 144": {"system": "S. pyogenes 144", "assay": "MIC assay (broth dilution in tubes, CLSI)", "format": "cell-based, Streptococcus pyogenes", "conditions": "Streptococcus pyogenes; S. pyogenes 144; read-out: Minimal inhibitory concentration (MIC)", "from_the_text": "as §2, §1"}, "YycG' protein": {"molecular_target": "T1, YycG' protein (Staphylococcus epidermidis, UniProt Q8CU87)", "T1 construct": "of YycG (370aa to 610aa) was amplified by PCR; His-tag (pET28a) (N); made in house; host or cells: E. coli BL21 (pET28a, pETYycG')", "T1 sequence (Q8CU87 370-610)": "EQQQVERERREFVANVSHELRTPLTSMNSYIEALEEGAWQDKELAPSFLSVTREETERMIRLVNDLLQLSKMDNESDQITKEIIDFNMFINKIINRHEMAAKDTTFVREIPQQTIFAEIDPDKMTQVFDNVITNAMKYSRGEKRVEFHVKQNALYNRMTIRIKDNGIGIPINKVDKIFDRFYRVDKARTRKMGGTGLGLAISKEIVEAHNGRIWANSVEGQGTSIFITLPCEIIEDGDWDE", "assay": "Inhibition of YycG' ATPase activity / autophosphorylation (Kinase-Glo Luminescent Kinase Assay)", "format": "biochemical", "conditions": "3 μM ATP", "experimental": "The inhibitory activities of the compounds for the ATPase activity of the YycG' protein was measured using the Kinase-Glo™ Luminescent Kinase Assay (Promega, Madison, USA). Briefly, 4 μg YycG' protein was pre-incubated with a series of dilution of compounds in the reaction buffer (40 mM Tris [pH 7.5], 20 mM MgCl2, and 0.1 mg/ml BSA), at 25°C for 30 min. Then 3 μM ATP was added for another incubation of 30 min at 25°C, and Kinase-Glo™ Reagent was added to detect the rest amount of ATP, as recorded from luminescence measurements (RLU). In parallel, theYycG' protein with no addition of compounds was used as the control. The rate of inhibiting protein phosphorylation (Rp) by the compounds was calculated from equation 1:\nRp=RLU(YycG^′+compound+ATP+Reagent)−RLU(YycG^′+ATP+Reagent)/RLU(ATP+Reagent)−RLU(YycG^′+ATP+Reagent)×100% (1) MathType@MTEF@5@5@+=feaafiart1ev1aaatCvAUfKttLearuWrP9MDH5MBPbIqV92AaeXatLxBI9gBaebbnrfifHhDYfgasaacH8akY=wiFfYdH8Gipec8Eeeu0xXdbba9frFj0=OqFfea0dXdd9vqai=hGuQ8kuc9pgc9s8qqaq=dirpe0xb9q8qiLsFr0=vr0=vr0dc8meaabaqaciaacaGaaeqabaqabeGadaaakeaacqqGsbGudaWgaaWcbaGaeeiCaahabeaakiabg2da9maalaaabaGaeeOuaiLaeeitaWKaeeyvauLaeiikaGIaeeywaKLaeeyEaKNaee4yamMafe4raCKbauaacqGHRaWkcqqGJbWycqqGVbWBcqqGTbqBcqqGWbaCcqqGVbWBcqqG1bqDcqqGUbGBcqqGKbazcqGHRaWkcqqGbbqqcqqGubavcqqGqbaucqGHRaWkcqqGsbGucqqGLbqzcqqGHbqycqqGNbWzcqqGLbqzcqqGUbGBcqqG0baDcqGGPaqkcqGHsislcqqGsbGucqqGmbatcqqGvbqvcqGGOaakcqqGzbqwcqqG5bqEcqqGJbWycuqGhbWrgaqbaiabgUcaRiabbgeabjabbsfaujabbcfaqjabgUcaRiabbkfasjabbwgaLjabbggaHjabbEgaNjabbwgaLjabb6gaUjabbsha0jabcMcaPaqaaiabbkfasjabbYeamjabbwfavjabcIcaOiabbgeabjabbsfaujabbcfaqjabgUcaRiabbkfasjabbwgaLjabbggaHjabbEgaNjabbwgaLjabb6gaUjabbsha0jabcMcaPiabgkHiTiabbkfasjabbYeamjabbwfavjabcIcaOiabbMfazjabbMha5jabbogaJjqbbEeahzaafaGaey4kaSIaeeyqaeKaeeivaqLaeeiuaaLaey4kaSIaeeOuaiLaeeyzauMaeeyyaeMaee4zaCMaeeyzauMaeeOBa4MaeeiDaqNaeiykaKcaaiabgEna0kabigdaXiabicdaWiabicdaWiabcwcaLiaaxMaacaWLjaWaaeWaaeaacqaIXaqmaiaawIcacaGLPaaaaaa@A46C@\nIC50 (the concentration of inhibition of 50% YycG' protein autophosphorylation) was obtained by using the Origin v7.0 software (OriginLab, Northampton, USA)."}}, "data": [{"smiles": "Cc1ccc(NC(=O)CN2C(=O)S/C(=C\\c3ccc(OCc4cccc(C(O)O)c4)cc3)C2=O)cc1", "note": "[Compound 7]", "values": [{"measurement": "MBC", "setting": "S. epidermidis ATCC12228", "value": "> 400", "unit": "µM"}, {"measurement": "MBC", "setting": "S. epidermidis RP62A", "value": "> 400", "unit": "µM"}, {"measurement": "hemolysis at 1 h", "setting": "[1]; at 4 × MIC (number in parenthesis)", "value": "< 0.1", "unit": "%"}, {"measurement": "hemolysis at 1 h", "setting": "[1]; at MIC for S. epidermidis ATCC12228", "value": "< 0.1", "unit": "%"}, {"measurement": "MIC", "setting": "S. aureus ATCC29213", "value": "> 200", "unit": "µM"}, {"measurement": "MIC", "setting": "S. pyogenes 144", "value": "> 200", "unit": "µM"}, {"measurement": "IC50", "setting": "YycG' protein; 4 μg YycG' protein, read-out: IC50 for YycG'", "value": 6.5, "unit": "µM"}, {"measurement": "inhibition at 50 µM", "setting": "YycG' protein; compound 50 μM, 4 μg protein, read-out: Inhibition of YycG' phosphorylation (decrease of ATPase activity)", "value": 86, "unit": "%"}]}]}
